What was measured:
human DP1 receptor = molecular target: T1, human DP1 receptor (Homo sapiens, UniProt Q13258); test: DP1 radioligand binding assay using [3H]BWA868C; conditions: hDP1 binding
T1 construct: tissue Biological Specialty Corporation; host or cells: human platelets, membranes
T1 sequence (Q13258 1-359): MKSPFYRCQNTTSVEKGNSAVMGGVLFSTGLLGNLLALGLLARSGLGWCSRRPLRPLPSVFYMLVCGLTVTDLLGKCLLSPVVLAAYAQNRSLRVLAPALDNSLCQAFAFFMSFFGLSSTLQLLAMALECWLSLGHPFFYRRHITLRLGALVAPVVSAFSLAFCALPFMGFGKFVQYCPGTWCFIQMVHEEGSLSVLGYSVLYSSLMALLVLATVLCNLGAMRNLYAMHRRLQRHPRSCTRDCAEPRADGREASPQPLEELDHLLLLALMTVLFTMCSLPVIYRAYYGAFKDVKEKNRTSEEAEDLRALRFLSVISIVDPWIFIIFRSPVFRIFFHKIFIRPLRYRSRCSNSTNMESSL
Method: The ability of a compound to bind to the human DP1 receptor was evaluated via a radioligand membrane binding assay using the DP1 selective synthetic ligand [^3H]BW A868C. Packed human platelets (Biological Specialty Corporation), were resuspended in 6 volumes of Hepes/HBSS buffer (10 mM Hepes, 1 mM DTT in Hanks Balanced Salt Solution (HBSS)), lysed and centrifuged at 75,000×g to pellet the membranes. Membranes were resuspended in Hepes/HBSS buffer to approximately 12 mg protein/ml. Membranes (20 μg protein/well) are incubated in 96-well plates with 2 nM [^3H]BWA868C and test compound in Assay Buffer (50 mM Hepes, 10 mM MnCl2, 1 mM EDTA, plus or minus 0.2% human serum albumin, pH 7.4) for 60 minutes at room temperature. The reactions are terminated by rapid filtration through Whatman GF/C glass fibre filter plates. The filter plates were pre-soaked in 0.33% polethylenimine for 30 minutes at room temperature then washed in Wash Buffer (50 mM Hepes, 0.5 M NaCl pH 7.4) prior to harvesting. After harvesting, the filter plates are washed 3 times with 1 ml cold Wash Buffer then dried. Scintillant is then added to the plates and the radioactivity retained on the filters is determined on a Packard TopCount (Perkin Elmer). Specific binding is determined as total radioactive binding minus non-specific binding in the presence of 10 μM BW A868C. IC50s were determined using GraphPad prism analysis of drug titration curves.

human DP2 receptor = molecular target: T2, human DP2 receptor (Homo sapiens, UniProt Q9Y5Y4); test: DP2/CRTH2 radioligand binding assay using [3H]PGD2; conditions: hDP2 (CRTH2) binding assay
T2 construct: expressed in transfected cells
T2 sequence (Q9Y5Y4 1-395): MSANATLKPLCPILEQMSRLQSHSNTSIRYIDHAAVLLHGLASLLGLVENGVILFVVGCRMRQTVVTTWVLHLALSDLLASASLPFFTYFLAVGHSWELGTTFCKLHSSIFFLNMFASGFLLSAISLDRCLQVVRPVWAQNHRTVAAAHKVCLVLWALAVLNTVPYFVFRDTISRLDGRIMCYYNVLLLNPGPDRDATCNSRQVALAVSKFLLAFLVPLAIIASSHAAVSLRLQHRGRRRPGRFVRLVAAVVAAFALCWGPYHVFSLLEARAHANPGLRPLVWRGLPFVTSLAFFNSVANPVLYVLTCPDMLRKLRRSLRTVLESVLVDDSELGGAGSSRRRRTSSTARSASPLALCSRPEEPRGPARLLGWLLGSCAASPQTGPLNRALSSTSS
Method: The ability of a compound to bind to the human DP2 receptor is assessed via a radioligand binding assay using [^3H]PGD2. HEK293 cells stably expressing recombinant human DP2 are resuspended in 10 mM Hepes, 7.4 containing 1 mM DTT, lysed and centrifuged at 75,000×g to pellet the membranes. The membranes are resuspended in 10 mM Hepes, 7.4 containing 1 mM DTT and 10% glycerol to approximately 5 mg protein/ml. Membranes (2-10 μg protein/well) are incubated in 96-well plates with 1 nM [^3H]PGD2 and test compound in Assay Buffer (50 mM Hepes, 10 mM MnCl2, 1 mM EDTA, plus or minus 0.2% human serum albumin, pH 7.4) for 60 minutes at room temperature. The reactions are terminated by rapid filtration through Whatman GF/C glass fibre filter plates. The filter plates were pre-soaked in 0.33% polythylenimine for 30 minutes at room temperature then washed in Wash Buffer (50 mM Hepes, 0.5 M NaCl pH 7.4) prior to harvesting. After harvesting, the filter plates are washed 3 times with 1 ml cold Wash Buffer then dried. Scintillant is then added to the plates and the radioactivity retained on the filters is determined on a Packard TopCount (Perkin Elmer). Specific binding is determined as total radioactive binding minus non-specific binding in the presence of 10 μM PGD2. IC50s were determined using GraphPad prism analysis of drug titration curves.

Row | SMILES | IC50 (human DP1 receptor) [nM] | IC50 (human DP2 receptor) [nM]
1 | CC(C)(C(=O)O)c1cccc(Oc2ccc(C(F)(F)F)cc2CN2CCOC2=O)c1 [Compound 1-11, 2-Methyl-2-{3-[2-(2-oxo-oxazolidin-3-ylmethyl)-4-trifluoromethyl-phenoxy]-phenyl}-propionic acid] | > 1000 | > 1000
2 | O=C(O)Cc1cc(Oc2ccc(C(F)(F)F)cc2CN2CCOC2=O)ccc1Br [Compound 1-12, {2-Bromo-5-[2-(2-oxo-oxazolidin-3-ylmethyl)-4-trifluoromethyl-phenoxy]-phenyl}-acetic acid] |  | > 1000
3 | C[C@H]1[C@@H](c2ccccc2)OC(=O)N1Cc1cc(-c2ccccn2)ccc1Oc1cccc(CC(=O)O)c1 [Compound 1-19, {3-[2-((4S,5R)-4-Methyl-2-oxo-5-phenyl-oxazolidin-3-ylmethyl)-4-pyridin-2-yl-phenoxy]-phenyl}-acetic acid] | < 300 | < 300
4 | C[C@H]1[C@@H](c2ccccc2)OC(=O)N1Cc1cc(-c2cnc(N)cn2)ccc1Oc1cccc(CC(=O)O)c1 [Compound 1-20, {3-[4-(5-Amino-pyrazin-2-yl)-2-((4S,5R)-4-methyl-2-oxo-5-phenyl-oxazolidin-3-ylmethyl)-phenoxy]-phenyl}-acetic acid] | < 300 | 300 to 1000
5 | C[C@H]1[C@@H](c2ccccc2)OC(=O)N1Cc1cc(-c2cnn(C)c2)ccc1Oc1cccc(CC(=O)O)c1 [Compound 1-21, {3-[2-((4S,5R)-4-Methyl-2-oxo-5-phenyl-oxazolidin-3-ylmethyl)-4-(1-methyl-1H-pyrazol-4-yl)-phenoxy]-phenyl}-acetic acid] | < 300 | < 300
6 | Cc1ncc(-c2ccc(Oc3cccc(CC(=O)O)c3)c(CN3C(=O)O[C@H](c4ccccc4)[C@@H]3C)c2)[nH]1 [Compound 1-23, {3-[4-(2-Methyl-3H-imidazol-4-yl)-2-((4S,5R)-4-methyl-2-oxo-5-phenyl-oxazolidin-3-ylmethyl)-phenoxy]-phenyl}-acetic acid] | > 1000 | < 300
7 | C[C@H]1[C@@H](c2ccccc2)OC(=O)N1Cc1cc(-c2ccc(N)cn2)ccc1Oc1cccc(CC(=O)O)c1 [Compound 1-69, {3-[4-(5-Amino-pyridin-2-yl)-2-((4S,5R)-4-methyl-2-oxo-5-phenyl-oxazolidin-3-ylmethyl)-phenoxy]-phenyl}-acetic acid] | < 300 | < 300
8 | Cc1nc(-c2ccc(Oc3cccc(CC(=O)O)c3)c(CN3C(=O)O[C@H](c4ccccc4)[C@@H]3C)c2)cn1C [Compound 1-70, {3-[4-(1,2-Dimethyl-1H-imidazol-4-yl)-2-((4S,5R)-4-methyl-2-oxo-5-phenyl-oxazolidin-3-ylmethyl)-phenoxy]-phenyl}-acetic acid] | > 1000 | < 300
9 | Cc1ncc(-c2ccc(Oc3cccc(CC(=O)O)c3)c(CN3C(=O)O[C@H](c4ccccc4)[C@@H]3C)c2)n1C [Compound 1-71, {3-[4-(2,3-Dimethyl-3H-imidazol-4-yl)-2-((4S,5R)-4-methyl-2-oxo-5-phenyl-oxazolidin-3-ylmethyl)-phenoxy]-phenyl}-acetic acid] | 300 to 1000 | 300 to 1000

Results, then the molecule that gave them:

Row | IC50 (human DP1 receptor) [nM] | IC50 (human DP2 receptor) [nM] | SMILES
10 | > 1000 | > 1000 | O=C(O)Cc1cccc(Oc2ccccc2CN2CCOC2=O)c1 [Compound 1-1, {3-[2-(2-Oxo-oxazolidin-3-ylmethyl)-phenoxy]-phenyl}-acetic acid]
11 | > 1000 | > 1000 | O=C(O)Cc1cccc(Oc2ccc(F)cc2CN2CCOC2=O)c1 [Compound 1-2, {3-[4-Fluoro-2-(2-oxo-oxazolidin-3-ylmethyl)-phenoxy]-phenyl}-acetic acid]
12 | > 1000 | 300 to 1000 | Cc1ccc(Oc2cccc(CC(=O)O)c2)c(CN2CCOC2=O)c1 [Compound 1-4, {3-[4-Methyl-2-(2-oxo-oxazolidin-3-ylmethyl)-phenoxy]-phenyl}-acetic acid]
13 | < 300 | 300 to 1000 | C[C@H]1[C@@H](c2ccccc2)OC(=O)N1Cc1cc(-c2ccc(C(N)=O)cn2)ccc1Oc1cccc(CC(=O)O)c1 [Compound 1-68, {3-[4-(5-Carbamoyl-pyridin-2-yl)-2-((4S,5R)-4-methyl-2-oxo-5-phenyl-oxazolidin-3-ylmethyl)-phenoxy]-phenyl}-acetic acid]
14 |  | < 300 | COc1ccc(CC(=O)O)cc1Oc1ccc(NC(=O)C(C)(C)C)cc1CN1CCOC1=O [Compound 1-100, {3-[4-(2,2-Dimethyl-propionylamino)-2-(2-oxo-oxazolidin-3-ylmethyl)-phenoxy]-4-methoxy-phenyl}-acetic acid]
15 |  | < 300 | COc1ccc(CC(=O)O)cc1Oc1ccc(NC(=O)Cc2ccccc2)cc1CN1CCOC1=O [Compound 1-101, {4-Methoxy-3-[2-(2-oxo-oxazolidin-3-ylmethyl)-4-phenylacetylamino-phenoxy]-phenyl}-acetic acid]
16 |  | < 300 | COc1ccc(CC(=O)O)cc1Oc1ccc(NC(=O)C2CCCCC2)cc1CN1CCOC1=O [Compound 1-102, {3-[4-(Cyclohexanecarbonyl-amino)-2-(2-oxo-oxazolidin-3-ylmethyl)-phenoxy]-4-methoxy-phenyl}-acetic acid]
17 |  | < 300 | COc1ccc(CC(=O)O)cc1Oc1ccc(NC(=O)C(C)C)cc1CN1CCOC1=O [Compound 1-103, {3-[4-Isobutyrylamino-2-(2-oxo-oxazolidin-3-ylmethyl)-phenoxy]-4-methoxy-phenyl}-acetic acid]
18 |  | < 300 | COc1ccc(CC(=O)O)cc1Oc1ccc(NC(=O)c2ccncc2)cc1CN1CCOC1=O [Compound 1-104, (4-Methoxy-3-{2-(2-oxo-oxazolidin-3-ylmethyl)-4-[(pyridine-4-carbonyl)-amino]-phenoxy}-phenyl)-acetic acid]
19 |  | > 1000 | COc1ccc(CC(=O)O)cc1Oc1ccc(NC(=O)c2cccnc2)cc1CN1CCOC1=O [Compound 1-105, (4-Methoxy-3-{2-(2-oxo-oxazolidin-3-ylmethyl)-4-[(pyridine-3-carbonyl)-amino]-phenoxy}-phenyl)-acetic acid]
20 |  | < 300 | COc1ccc(CC(=O)O)cc1Oc1ccc(NC(=O)COc2ccccc2)cc1CN1CCOC1=O [Compound 1-106, {4-Methoxy-3-[2-(2-oxo-oxazolidin-3-ylmethyl)-4-(2-phenoxy-acetylamino)-phenoxy]-phenyl}-acetic acid]
21 |  | 300 to 1000 | COCC(=O)Nc1ccc(Oc2cc(CC(=O)O)ccc2OC)c(CN2CCOC2=O)c1 [Compound 1-107, {4-Methoxy-3-[4-(2-methoxy-acetylamino)-2-(2-oxo-oxazolidin-3-ylmethyl)-phenoxy]-phenyl}-acetic acid]
22 |  | < 300 | COc1ccc(CC(=O)O)cc1Oc1ccc(NC(=O)NCc2ccccc2)cc1CN1CCOC1=O [Compound 1-108, {3-[4-(3-Benzyl-ureido)-2-(2-oxo-oxazolidin-3-ylmethyl)-phenoxy]-4-methoxy-phenyl}-acetic acid]

From patent US8242145B2, “Cyclic diaryl ether compounds as antagonists of prostaglandin D2 receptors” (Panmira Pharmaceuticals, LLC, priority 2008, dated 2012)
